Experimental data: PubChem BioAssay (NCI)
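Exposure lasted 48 hours, with cells grown in 96-well plates and compounds tested at five concentrations. TGI is the concentration that stops growth completely.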

Assays:
Test in all cases: NCI anticancer screen, dose series, 48 h
[1] = system: HCT-116 colon
[2] = system: SK-OV-3 ovarian
[3] = system: HOP-18 NSCLC
[4] = system: M19-MEL melanoma
[5] = system: K-562 leukemia
[6] = system: SN12C renal
[7] = system: ACHN renal
[8] = system: OVCAR-3 ovarian
[9] = system: U251 CNS
[10] = system: MALME-3M melanoma
[11] = system: HCT-15 colon
[12] = system: COLO 205 colon
[13] = system: KM12 colon
[14] = system: LOX IMVI melanoma
[15] = system: A549 NSCLC
[16] = system: SK-MEL-5 melanoma
[17] = system: CCRF-CEM leukemia
[18] = system: DMS 114 small cell lung
[19] = system: SK-MEL-28 melanoma
[20] = system: NCI-H226 lung
[21] = system: HCC-2998 colon
[22] = system: IGROV1 ovarian
[23] = system: M14 melanoma
[24] = system: NCI-H23 lung
[25] = system: SR leukemia
[26] = system: TK-10 renal
[27] = system: NCI-H522 lung
[28] = system: UACC-257 melanoma
[29] = system: 786-0 renal
[30] = system: HT29 colon
[31] = system: RXF 393 renal
[32] = system: XF 498 CNS
[33] = system: HOP-92 NSCLC
[34] = system: MOLT-4 leukemia
[35] = system: CAKI-1 renal
[36] = system: UACC-62 melanoma
[37] = system: RXF-631 renal
[38] = system: SF-295 CNS
[39] = system: SNB-75 CNS
[40] = system: EKVX NSCLC
[41] = system: OVCAR-5 ovarian
[42] = system: DLD-1 colon
[43] = system: HL-60(TB) leukemia
[44] = system: UO-31 renal
[45] = system: OVCAR-8 ovarian
[46] = system: RPMI-8226 leukemia
[47] = system: SW-620 colon
[48] = system: HOP-62 NSCLC
[49] = system: KM20L2 colon
[50] = system: NCI-H460 lung
[51] = system: OVCAR-4 ovarian
[52] = system: SF-539 CNS
[53] = system: A498 renal
[54] = system: SNB-19 CNS
[55] = system: SF-268 CNS

Measured: TGI

C(=C\c1cc(CCc2nc3ccccc3[nH]2)[nH]n1)/c1ccccc1
> 100 µM: all assays above
